According to patent publication US7947270B2, “Removing dental plaque with krill enzymes” (Arcimboldo AB, priority 1992, dated 2011):
Where a SMILES comes first, the peptide text is derived from it.

Columns and labels:
[1] = test system: krill-derived multifunctional hydrolase (antarctic krill), Prep-3 (eluted at pH 3), SEQ ID NO. 1 (N-terminal sequence); test: Km determination, krill-derived multifunctional hydrolase Prep-3; type: biochemical; details: 0.1 M CAPS buffer, 2 mM Ca++, pH 9.5
Protocol: (§1) The krill-derived multifunctional hydrolase was purified by the protocol described above in Example 1C. Three preparations the krill-derived multifunctional hydrolase were prepared. The three preparations differed only in that the krill multifunctional hydrolase was eluted from the trypsin inhibitor gel with buffer at pH 3, pH 8, and pH 11, respectively. These preparations shall be termed “Prep-3,” “Prep-8,” and “Prep-11.” These preparations were dissolved in water to a concentration of 6 mg/ml.
(§2) The SDS bands were electroblotted onto PVDF membranes and sequenced through 25 cycles of Edman degradation. See, Matsudaira, J. Biol. Chem., 262: 10035-10038, 1987. […] Accordingly, it is clear that all three preparations are homogenous, although each is micro-heterogeneous at position 5. The proteolytic activity of each of the three preparations was tested against substrate benzoyl-val-gly-arg-p-nitroaniline. Hydrolysis of this substrate can be monitored at […], reflecting the release of p-nitroaniline. The profile for Prep-3 (shown with filled squares), Prep-8 (shown with open diamonds) and Prep-11 (shown with filled diamonds) are identical.

[2] = test system: krill-derived multifunctional hydrolase (antarctic krill), Prep-11 (eluted at pH 11), SEQ ID NO. 1 (N-terminal sequence); test: Km determination, krill-derived multifunctional hydrolase Prep-11; type: biochemical; details: 0.1 M CAPS buffer, 2 mM Ca++, pH 9.5
Protocol: as §1, §2

[3] = test system: krill-derived multifunctional hydrolase (antarctic krill), Prep-8 (eluted at pH 8), SEQ ID NO. 1 (N-terminal sequence); test: Km determination, krill-derived multifunctional hydrolase Prep-8; type: biochemical; details: 0.1 M CAPS buffer, 2 mM Ca++, pH 9.5
Protocol: as §1, §2

[4] = target: krill-derived multifunctional hydrolase (antarctic krill); test: cell-based or functional assay
[5] = test system: krill-derived multifunctional hydrolase; test: protease inhibitors at pH 9.5 against hydrolase preparations; type: biochemical, antarctic krill
Protocol: The effectiveness of three protease inhibitors was tested at pH 9.5 against the three hydrolase preparations.

[6] = test system: krill-derived multifunctional hydrolase (Prep-8); test: protease inhibitors against Prep-8 at pH 7.5; type: biochemical, antarctic krill
Protocol: The effectiveness of other protease inhibitors against Prep-8 was tested in a 0.1 M Tris-HCl buffer pH 7.5. Benzoyl-val-gly-arg-p-nitroanilide (“ARG-p-NA”) and succinyl-ala-pro-phe-p-nitroanilide (Phe-pNA) were used as substrates.

[7] = test system: HL60 cells; test: in vitro binding of HL60 cells to endothelial cells; type: cell-based, human
Protocol: Endothelial cells were first passaged onto 96 well plates at a given concentration. The endothelial cells used in the experiment are described in Edgell et al., Proc. Natl. Acad. Sci. USA (1983) 80:3734. The cells were incubated at 37° C. under a DMEM cell culture medium containing 10% fetal calf serum and under a 5% CO2 atmosphere. Then, the medium was removed and replaced with 100 μl of a suspension of 200,000 HL60 cells (a […], available from the European Cell Culture Bank under ECACC Accession No. 85011431) in RPMI medium containing 10% fetal calf serum. The cells were incubated for 30 minutes. After this, the medium was removed and the adherent cells were washed two times with DMEM medium. The relative adherence of the HL60 cells was measured by measuring the difference in optical density at 450 nm between the plates on which the cells were co-incubated and plates having endothelial cells alone.
The effect of TNFα was measured by adding TNFα at 1500 units/ml to the endothelial cells 4 hours before the incubation with HL60 cells. The effect of antibody to E-selectin was measured by adding 25 μg/ml of monoclonal antibody BBAZ (R&D Systems Europe, Oxford, England) to the HL60 cells. The results of the experiments were: […]
The number of HL60 cells was determined by subtracting the cell numbers for control plates having only endothelial cells. […]

[8] = test system: mice with s.c. implanted P388 murine leukemia; test: toxicity on mice with P388 murine leukemia
[9] = test system: mice with P388 murine leukemia; test: Toxicity on mice with s.c. implanted P388 murine leukemia; type: in vivo; details: all mice in doxorubicin group except those receiving the lowest dosage
[10] = Prep-11, pH 9.5, inhibitor 1 μM
[11] = substrate Arg-pNA, inhibitor 10 μM, pH 7.5
[12] = substrate Phe-pNA, inhibitor 10 μM, 0.1 M Tris-HCl pH 7.5
[13] = substrate Arg-pNA, inhibitor 0.2 μM, pH 7.5
[14] = substrate Phe-pNA, inhibitor 0.2 μM, pH 7.5

Sequence of krill-derived multifunctional hydrolase (antarctic krill) (P86599 1-25): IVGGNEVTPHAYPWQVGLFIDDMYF

C[C@H](NC(=O)CCC(=O)O)C(=O)N[C@@H](C)C(=O)N1CCC[C@H]1C(=O)N[C@@H](Cc1ccccc1)C(=O)Nc1ccc([N+](=O)[O-])cc1 [succinyl-ala-ala-pro-phe-p-nitroanilide] (HELM PEPTIDE1{[O=C(O)CCC(=O)[*:2]].A.A.P.F.[O=[N+]([O-])c1ccc(N[*:1])cc1]}$$$$V2.0)
Km [1]: 260 ± 50 µM | Km [2]: 270 ± 40 µM | Km [3]: 270 ± 50 µM

Eglin C fragment (peptide)
Activity remaining, % of Prep-8 with 8.4 µM inhibitor, substrate Phe-pNA, pH 7.5 (% activity remaining) [4]: 100

Bovine pancreatic trypsin inhibitor
% activity remaining ([5]; Prep-3, pH 9.5, inhibitor 1 μM): 2% | % activity remaining ([5]; Prep-8, pH 9.5, inhibitor 1 μM): 1% | % activity remaining [5, 10]: 1%

CC(C)C[C@H](NP(=O)(O)O[C@@H]1O[C@@H](C)[C@H](O)[C@@H](O)[C@H]1O)C(=O)N[C@@H](Cc1c[nH]c2ccccc12)C(=O)O [Phosphoramidon]
Activity remaining, % [6, 11]: 87% | Activity remaining, % [6, 12]: 94%

CC(C)[C@H](NC(=O)c1ccccc1)C(=O)NCC(=O)N[C@@H](CCCNC(=N)N)C(=O)Nc1ccc([N+](=O)[O-])cc1 [benzoyl-pal-gly-arg-p-nitroanilide] (HELM PEPTIDE1{[O=C(c1ccccc1)[*:2]].V.G.R.[O=[N+]([O-])c1ccc(N[*:1])cc1]}$$$$V2.0)
Km [1]: 210 ± 8 µM | Km [2]: 230 ± 13 µM | Km [3]: 210 ± 8 µM

α-proteinase inhibitor: protease inhibitor
Activity remaining, % [6, 13]: 0% | Activity remaining, % [6, 14]: 0%

CC(C)C[C@H](NC(=O)[C@@H](NC(=O)N[C@@H](Cc1ccccc1)C(=O)O)[C@@H]1CCN=C(N)N1)C(=O)N[C@H](C=O)Cc1ccccc1 [Chymostatin]
% activity remaining ([5]; Prep-3, pH 9.5, inhibitor 1 μM): 0% | % activity remaining ([5]; Prep-8, pH 9.5, inhibitor 1 μM): 0% | % activity remaining [5, 10]: 0%

TNFα
HL60 cell number ([7]; Expt 2: endothelial cells pretreated with TNFα): 43,990 | Absorbance (increase over endothelial cells alone) ([7]; Expt 2: endothelial cells pretreated with TNFα 1500 units/ml 4 hours): 0.444

COc1cccc2c1C(=O)c1c(O)c3c(c(O)c1C2=O)C[C@@](O)(C(=O)CO)C[C@@H]3O[C@H]1C[C@H](N)[C@H](O)[C@H](C)O1 [DOX, doxorubicin]
Toxic death ([8]; 2.5 mg/kg i.p. daily, 9 consecutive days): 6/6 | death and weight loss (summary) ([8]; all doses): all mice in the doxorubicin group, except for those receiving the lowest dosage, lost weight and died | weight loss and death of mice [9]: lost weight and died

CC(C)C[C@H](NC(=O)N[C@H](C(=O)N[C@@H](CCC(N)=O)C(=O)N[C@@H](C)C=O)[C@@H]1CCNC(=N)N1)C(=O)O [Elastatinal]
Activity remaining, % [6, 11]: 100% | Activity remaining, % [6, 12]: 100%

α-proteinase inhibitor
Activity remaining, % of Prep-8 with 0.2 µM inhibitor, substrate Arg-pNA, pH 7.5 (% activity remaining) [4]: 0 | Activity remaining, % of Prep-8 with 0.2 µM inhibitor, substrate Phe-pNA, pH 7.5 (% activity remaining) [4]: 0

Anti-Thrombin III [listing 1 of 2 here]
Activity remaining, % [6, 13]: 4% | Activity remaining, % [6, 14]: 2%

Anti-Thrombin III [listing 2 of 2 here]
Activity remaining, % of Prep-8 with 0.2 µM inhibitor, substrate Arg-pNA, pH 7.5 (% activity remaining) [4]: 4 | Activity remaining, % of Prep-8 with 0.2 µM inhibitor, substrate Phe-pNA, pH 7.5 (% activity remaining) [4]: 2

B1: α-anti-chymotrypsin (protein, UniProt P01011 24-423, looked up, species assumed)
Alpha-1-antichymotrypsin: HPNSPLDEENLTQENQDRGTHVDLGLASANVDFAFSLYKQLVLKAPDKNVIFSPLSISTALAFLSLGAHNTTLTEILKGLKFNLTETSEAEIHQSFQHLLRTLNQSSDELQLSMGNAMFVKEQLSLLDRFTEDAKRLYGSEAFATDFQDSAAAKKLINDYVKNGTRGKITDLIKDLDSQTMMVLVNYIFFKAKWEMPFDPQDTHQSRFYLSKKKWVMVPMMSLHHLTIPYFRDEELSCTVVELKYTGNASALFILPDQDKMEEVEAMLLPETLKRWRDSLEFREIGELYLPKFSISRDYNLNDILLQLGIEEAFTSKADLSGITGARNLAVSQVVHKAVLDVFEEGTEASAATAVKITLLSALVETRTIVRFNRPFLMIIVPTDTQNIFFMSKVTNPKQA
Activity remaining, % [6, 13]: 7% | Activity remaining, % [6, 14]: 1% | Activity remaining, % of Prep-8 with 0.2 µM inhibitor, substrate Arg-pNA, pH 7.5 (% activity remaining) [4]: 7 | Activity remaining, % of Prep-8 with 0.2 µM inhibitor, substrate Phe-pNA, pH 7.5 (% activity remaining) [4]: 1
